From US6335339B1, “Triazine antiviral compounds” (Scriptgen Pharmaceuticals, Inc., priority 1998, dated 2002)

Key:
HBV εRNA = assay: εRNA/oligonucleotide hybridization inhibition assay with rRNA competitor; type: binding, Hepatitis B virus; details: for IC50: radiolabeled εRNA, 60-fold excess rRNA competitor; for Specificity: ratio RRE+rRNA IC50/εRNA+rRNA IC50, max = inactive in RRE assay
Outline: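 Inhibition of hybridization between 25 nM [32P]-εRNA and 100 nM biotinylated complementary oligonucleotide (50 mM Tris-HCl pH 7.5, 200 mM KCl, 5 mM MgCl2, 60 min, 25 °C), hybrids captured by streptavidin filter and counted. Titrations 0.1-200 μM with 60-fold excess rRNA; specificity = RRE+rRNA IC50/εRNA+rRNA IC50.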

HIV derived RRE RNA = assay: heterologous hybridization inhibition assay with RRE RNA; type: binding; details: radiolabeled RRE RNA, rRNA competitor

Compound	IC50 (HBV εRNA) [µM]	Specificity (HBV εRNA)	RRE + rRNA IC50 (μM) (HIV derived RRE RNA)	IC50 (HIV derived RRE RNA) [µM]
C(=NNc1nc(Nc2ccccc2)nc(N2CCCCC2)n1)c1ccccc1 [Compound 3]	66.9	max.	inactive	
Cc1[nH]c2ccccc2c1C=NNc1nc(Nc2ccccc2)nc(N2CCOCC2)n1 [Compound 4]	16.3	max.	inactive	
FC(F)(F)c1cccc(Nc2nc(Nc3cccc(Br)c3)nc(N3CCOCC3)n2)c1 [Compound 38]	34.9	max.	inactive	
CCCCN(CCCC)c1nc(NN=Cc2c[nH]c3ccccc23)nc(Nc2ccc([N+](=O)[O-])cc2)n1 [Compound 39]	39.9	max.	inactive	
Cc1ccc(Nc2nc(NN=Cc3ccc(Cl)c(Cl)c3)nc(Nc3ccccc3)n2)c(C)c1 [Compound 40]	21.9	max.	inactive	
O=[N+]([O-])c1ccc(Nc2nc(N/N=C/c3cccc(Cl)c3)nc(N3CCCCC3)n2)cc1 [Compound 41]	24.9	max.	inactive	
Cc1ccc(Nc2nc(NN=Cc3ccc(Cl)cc3)nc(Nc3ccccc3)n2)c(C)c1 [Compound 42]	30	max.	inactive	
Brc1cc2c(cc1C=NNc1nc(NCc3ccccc3)nc(Nc3ccccc3)n1)OCO2 [Compound 43]	30.1	max.	inactive	
COc1ccc(C=NNc2nc(Nc3ccc([N+](=O)[O-])cc3)nc(N3CCCCC3)n2)cc1 [Compound 44]	35	max.	inactive	
O=[N+]([O-])c1ccc(C=NNc2nc(Nc3ccccc3)nc(NC3CCCCC3)n2)cc1 [Compound 46]	23.1	max.	inactive	
Cc1ccc(Nc2nc(NN=Cc3cccc(Br)c3)nc(Nc3ccccc3)n2)c(C)c1 [Compound 49]	35	max.	inactive	
Cc1[nH]c2ccccc2c1C=NNc1nc(NCc2ccccc2)nc(Nc2ccccc2)n1 [Compound 50]	39.9	max.	inactive	
Cc1ccc(Nc2nc(NN=Cc3ccc4c(c3)OCO4)nc(Nc3ccccc3)n2)c(C)c1 [Compound 51]	39.9	max.	inactive	
O=[N+]([O-])c1cc(C=NNc2nc(Nc3ccccc3)nc(N3CCOCC3)n2)ccc1Cl [Compound 52]	66	max.	inactive	
Oc1ccc(Nc2nc(Nc3cccc(C(F)(F)F)c3)nc(N3CCOCC3)n2)cc1 [Compound 53]	70.1	max.	inactive	
CC(C)c1ccc(C=NNc2nc(Nc3ccc([N+](=O)[O-])cc3)nc(N3CCCCCC3)n2)cc1 [Compound 56]	42.1	max.	inactive	
COc1ccc(C=NNc2nc(Nc3ccccc3)nc(Nc3ccc(C)cc3C)n2)c(OC)c1 [Compound 61]	42.6	max.	inactive	
CC(C)c1ccc(C=NNc2nc(Nc3ccc([N+](=O)[O-])cc3)nc(N3CCCCC3)n2)cc1 [Compound 62]	54.3	max.	inactive	
CCN(CC)c1nc(N/N=C/c2ccc([N+](=O)[O-])cc2)nc(Nc2cc(C)ccc2C)n1 [Compound 63]	69	max.	inactive	
CNc1nc(NN=Cc2ccccc2[N+](=O)[O-])nc(Nc2ccccc2)n1 [Compound 65]	99.9	max.	inactive	
CC(C)(C)Nc1nc(NCc2ccccc2)nc(NN=Cc2ccc3c(c2)OCO3)n1 [Compound 67]	47.7	max.	inactive	
CCN(CC)c1nc(NN=Cc2ccc(F)cc2)nc(Nc2ccc([N+](=O)[O-])cc2)n1 [Compound 68]	33	max.	inactive	
CCCCN(CCCC)c1nc(NN=C(C)c2ccccc2)nc(Nc2ccc([N+](=O)[O-])cc2)n1 [Compound 74]	126	max.	inactive	
CCN(CC)c1nc(NN=Cc2cc([N+](=O)[O-])ccc2OC)nc(Nc2cc(C)ccc2C)n1 [Compound 85]	53.8	max.	inactive	
Cc1[nH]c2ccccc2c1C=NNc1nc(Nc2ccccc2)nc(N2CCCCC2)n1 [Compound 88]	11.7	80.2		938
C(=Cc1ccccc1)C=NNc1nc(NCc2ccccc2)nc(Nc2ccccc2)n1 [Compound 91]	17.1	46.8		800
CC(C)(C)Nc1nc(NCc2ccccc2)nc(N/N=C/c2ccccc2F)n1 [Compound 93, 2-fluorobenzaldehyde N-[4-(benzylamino)-6-(tert-butylamino)-1,3,5-triazin-2-yl]hydrazone]	12.7	max	Inactive	
COc1ccccc1C=NNc1nc(Nc2ccc([N+](=O)[O-])cc2)nc(Nc2ccc(C)c(C)c2)n1 [Compound 94]	12	20.8		250
